The values that follow come from US20090215884A1, “METHOD FOR WOUND HEALING” (priority 2005, published 2009).

Structures are written as SMILES.

Data set [1] in a line: Storage stability of PEP005 preparations. Type of data set: physicochemical. The settings on record: stored at 4° C. How it is done: PEP005 was supplied by Peplin Limited, Brisbane, Australia, in 20 mg batches and stored at 4° C. When required, the PEP005 was solubilized in dimethyl sulphoxide (DMSO, >99.9%, Sigma Chemical Co., Dorset, U.K.), at a concentration of 10 mg/ml.
PEP005 was supplied by Peplin Limited, Brisbane, Australia as 0.01% (100 μg/ml), 0.028% (280 μg/ml) and 0.05% (500 μg/ml) preparations in a DMSO/isopropanol-based gel. PEP005-free, DMSO/isopropanol-based carrier gel was also supplied to serve as a vehicle control.

The test system of data set [2] is keratinocytes. Description: Cytokine production by PEP005-treated human keratinocytes. The settings on record: 6 h, supernatant. Format: cell-based. The method, then:
(§1) Cytokine production by PEP005-treated human cells Confluent cultures of Me10538 cells, keratinocytes, fibroblasts and neutrophils were incubated for 6 h in the absence or presence of PEP005 (1-100 ng/ml). The supernatants were harvested and analyzed for the presence of the following cytokines; TNF-α, IL-6 and IL-8 using a multiplex detection kit (Biosource International, Nivelles, Belgium). Units of detected proteins are pg/ml.

Data set [3] relates to MMP-2. Nature of the data set: Gelatin zymography of FPCL conditioned medium. Format: cell-based, human. The following applies: PEP005 0.01-0.1 μg/ml. An excerpt: The ability of dermal fibroblasts to remodel/reorganize their ECM environment in the presence of PEP005 was examined by fibroblast populated collagen lattices (FPCLs), according to Cook et al (2000). Following trypsinization, dermal fibroblasts were suspended in Fibroblast-Serum Containing Medium, containing 10% gelatinase-free, fetal calf serum (prepared using a gelatin-A Sepharose column, GE Healthcare Ltd., Buckinghamshire, U.K.), to remove endogenous MMP-2 and MMP-9 activity. […] The degree of ECM reorganization/lattice contraction was quantified from three separate lattice diameter measurements performed on each of the three replicate samples, at days 1, 2, 3, 4, 5, 6, 7, 10 and 14, after initial fabrication. […]
To determine the relative amounts of pro- and active MMP species produced by the cells in the FPCL systems, gelatin zymography was employed, according to Cook et al (2000). Equal volumes (15 μl) of FPCL conditioned medium were subjected to sodium dodecyl sulphate-polyacrylamide gel electrophoresis (SDS-PAGE), on pre-cast 10% gelatin zymography gels (Ready Gel 10% Gelatin Zymogram Gels, Bio-Rad Laboratories Ltd., Hertfordshire, U.K.), incorporated into a Mini-Protean 3 Gel Electrophoresis System (Bio-Rad Laboratories Ltd.), at 15 mA for 4-5 h. […]

Data set [4] has as its system neutrophils. Description: Cytokine production by PEP005-treated human neutrophils. Type of data set: cell-based. The settings on record: 6 h, supernatant. How it is done:
as §1

For `C/C=C(/C)C(=O)O[C@H]1C(C)=C[C@]23C(=O)[C@@H](C=C(CO)[C@@H](O)[C@]12O)[C@H]1[C@@H](C[C@H]3C)C1(C)C` [PEP005, ingenol-3-angelate], the “stability of PEP005 gels” value in data set [1] (0.01%, 0.028% and 0.05% preparations in DMSO/isopropanol-based gel) is “stable for several months”. The “stability of PEP005/DMSO stock solution” value in data set [1] (10 mg/ml in DMSO) is listed as “stable for several months”. Further, the IL-8 was 3910 ± 148 pg/mL in data set [2] (PEP005 1 ng/ml); 4775 ± 178 pg/mL in data set [2] (PEP005 5 ng/ml); 3895 ± 198 pg/mL in data set [2] (PEP005 10 ng/ml); 2950 ± 108 pg/mL in data set [2] (PEP005 100 ng/ml); 7089 ± 1293 pg/mL in data set [4] (PEP005 1 ng/ml); 2241 ± 684 pg/mL in data set [4] (PEP005 10 ng/ml). In data set [4] (PEP005 100 ng/ml), this molecule came in with an IL-8 of 617 ± 52 pg/mL. The TNFα in data set [2] (PEP005 1 ng/ml) turned out to be 510 ± 26 pg/mL; in data set [2] (PEP005 5 ng/ml) it was 847 ± 37 pg/mL; in data set [2] (PEP005 10 ng/ml), 498 ± 29 pg/mL; in data set [2] (PEP005 100 ng/ml), 335 ± 21 pg/mL. Besides, the “Pro and active MMP-2 levels” value in data set [3] was “observed to increase”.
